Experiment [1] concerns KARPAS-299. Description: cells. Conditions: Homo sapiens, KARPAS-299, 72 h.
Description: Antiproliferative activity against human KARPAS299 cells expressing NMP-ALK assessed as reduction in cell viability incubated for 72 hrs by MTT assay
Another experiment has as its system SH-SY5Y. Description: cells. The note with it: Homo sapiens, 72 h.
A short description of the next experiment: cells. The note with it: Homo sapiens, SKNBE2, 72 h.
The next experiment relates to NCI-H2228. Description: cells. The note with it: Homo sapiens, NCI-H2228, 72 h.
Experiment [2] concerns the target Proto-oncogene tyrosine-protein kinase ROS (Homo sapiens, UniProt P08922). Description: Inhibition of recombinant human N-terminal GST-tagged ROS (1883 to 2347 residues) expressed in baculovirus expression system using IRS1 as substrate incubated with enzyme and substrate for 5 mins followed by ATP addition followed by further incubation for 30 mins by HTRF assay.

Experiment [3] deals with KARPAS-299. Description: Cell cycle arrest in human KARPAS299 cells expressing […] assessed as accumulation of cells at G1 phase at 1 uM incubated for 48 hrs by propidium iodide staining based flow cytometry (reference value: 58.94%). The class given is functional. (In general: Flow cytometry measures light scatter and fluorescence of single cells or particles in a stream.)

The subject of experiment [4] is KARPAS-299. Description: Cell cycle arrest in human KARPAS299 cells expressing […] assessed as accumulation of cells at S phase at 1 uM incubated for 48 hrs by propidium iodide staining based flow cytometry (reference value: 28.83%). The class given is functional.
Experiment [5] deals with KARPAS-299. The experiment in a line: Cell cycle arrest in human KARPAS299 cells expressing […] assessed as accumulation of cells at G2 phase at 1 uM incubated for 48 hrs by propidium iodide staining based flow cytometry (reference value: 3.68%). In kind it is functional.

Bounds are passed on as bounds.

In general, IC50 refers to the midpoint of a concentration-inhibition curve.

Sequence of Proto-oncogene tyrosine-protein kinase ROS (P08922 whole entry, the tested form may be a part): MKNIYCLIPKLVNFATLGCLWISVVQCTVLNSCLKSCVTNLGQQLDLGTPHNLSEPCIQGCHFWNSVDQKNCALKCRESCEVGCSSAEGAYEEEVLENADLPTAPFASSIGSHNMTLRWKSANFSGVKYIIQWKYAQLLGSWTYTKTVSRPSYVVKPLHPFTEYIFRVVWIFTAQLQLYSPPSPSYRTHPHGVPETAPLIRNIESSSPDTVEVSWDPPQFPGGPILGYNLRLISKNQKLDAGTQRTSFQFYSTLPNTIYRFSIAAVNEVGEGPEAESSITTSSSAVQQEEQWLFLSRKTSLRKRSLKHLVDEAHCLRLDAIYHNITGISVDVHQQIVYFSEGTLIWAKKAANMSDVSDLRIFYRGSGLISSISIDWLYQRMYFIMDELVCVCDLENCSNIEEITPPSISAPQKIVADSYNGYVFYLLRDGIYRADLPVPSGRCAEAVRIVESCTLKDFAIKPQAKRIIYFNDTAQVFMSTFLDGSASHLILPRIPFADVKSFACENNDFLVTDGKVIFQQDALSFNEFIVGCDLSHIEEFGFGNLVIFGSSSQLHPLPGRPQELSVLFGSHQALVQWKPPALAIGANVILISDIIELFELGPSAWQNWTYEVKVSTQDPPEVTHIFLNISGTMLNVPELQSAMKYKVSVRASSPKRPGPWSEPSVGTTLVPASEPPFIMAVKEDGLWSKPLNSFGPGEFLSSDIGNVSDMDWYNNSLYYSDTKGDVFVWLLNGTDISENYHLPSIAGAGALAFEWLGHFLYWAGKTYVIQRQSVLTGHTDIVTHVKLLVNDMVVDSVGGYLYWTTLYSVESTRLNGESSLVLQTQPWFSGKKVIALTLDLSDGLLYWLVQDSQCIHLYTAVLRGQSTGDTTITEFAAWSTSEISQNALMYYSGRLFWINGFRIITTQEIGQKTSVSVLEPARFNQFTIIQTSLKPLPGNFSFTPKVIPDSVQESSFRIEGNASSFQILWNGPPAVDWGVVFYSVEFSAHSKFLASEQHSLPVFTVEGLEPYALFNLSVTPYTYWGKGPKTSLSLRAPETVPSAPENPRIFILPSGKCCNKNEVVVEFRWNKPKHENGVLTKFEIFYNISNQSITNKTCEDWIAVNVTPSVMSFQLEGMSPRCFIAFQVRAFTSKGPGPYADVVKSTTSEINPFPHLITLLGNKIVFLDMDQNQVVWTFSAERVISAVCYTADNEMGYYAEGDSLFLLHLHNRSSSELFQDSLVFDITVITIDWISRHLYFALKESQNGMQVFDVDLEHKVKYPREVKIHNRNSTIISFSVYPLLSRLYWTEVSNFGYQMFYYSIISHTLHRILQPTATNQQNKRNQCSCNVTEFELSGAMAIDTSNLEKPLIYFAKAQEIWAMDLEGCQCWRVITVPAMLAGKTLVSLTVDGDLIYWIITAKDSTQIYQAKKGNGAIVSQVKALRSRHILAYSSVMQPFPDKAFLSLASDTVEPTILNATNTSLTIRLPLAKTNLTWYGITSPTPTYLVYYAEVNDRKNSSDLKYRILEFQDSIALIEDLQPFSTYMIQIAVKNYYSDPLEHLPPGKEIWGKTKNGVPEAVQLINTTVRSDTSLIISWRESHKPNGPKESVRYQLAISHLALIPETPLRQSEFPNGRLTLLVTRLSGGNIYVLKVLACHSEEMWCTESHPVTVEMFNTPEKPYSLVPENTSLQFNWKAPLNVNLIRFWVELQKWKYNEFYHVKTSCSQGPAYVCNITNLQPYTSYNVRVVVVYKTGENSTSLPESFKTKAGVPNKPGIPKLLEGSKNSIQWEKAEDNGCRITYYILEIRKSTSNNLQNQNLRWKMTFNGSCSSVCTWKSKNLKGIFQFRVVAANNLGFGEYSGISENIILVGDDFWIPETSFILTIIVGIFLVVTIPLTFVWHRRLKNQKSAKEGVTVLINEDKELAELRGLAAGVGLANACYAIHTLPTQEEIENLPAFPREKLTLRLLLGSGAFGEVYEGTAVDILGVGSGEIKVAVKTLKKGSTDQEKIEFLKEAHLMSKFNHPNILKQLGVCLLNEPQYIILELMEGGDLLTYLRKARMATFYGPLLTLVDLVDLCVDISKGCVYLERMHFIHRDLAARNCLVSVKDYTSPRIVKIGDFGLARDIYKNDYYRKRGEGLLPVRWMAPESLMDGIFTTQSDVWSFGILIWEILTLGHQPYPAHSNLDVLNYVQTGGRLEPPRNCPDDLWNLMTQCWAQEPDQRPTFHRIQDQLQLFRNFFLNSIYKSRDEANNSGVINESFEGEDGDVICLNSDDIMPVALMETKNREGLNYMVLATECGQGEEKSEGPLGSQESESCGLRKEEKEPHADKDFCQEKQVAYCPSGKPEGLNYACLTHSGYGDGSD
Description for NCI-H2228: Antiproliferative activity against human NCI-H2228 cells expressing EML4-ALK assessed as reduction in cell viability incubated for 72 hrs by MTT assay
Description for SH-SY5Y: Antiproliferative activity against human SH-SY5Y cells expressing ALK F1174L mutant assessed as reduction in cell viability incubated for 72 hrs by MTT assay

In the case of `C[C@@H](Sc1cc(-c2ccn(Cc3ccccc3)c(=O)c2)cnc1N)c1c(Cl)ccc(F)c1Cl`, the 50% inhibitory concentration (IC50) with KARPAS-299 [1] amounted to 790 nM.

In the case of `C[C@@H](Oc1cc(-c2cc[nH]c(=O)c2)cnc1N)c1c(Cl)ccc(F)c1Cl`, the IC50 with KARPAS-299 [1] worked out at 50 nM; in the experiment on SH-SY5Y, 2070 nM; in “cells”, 750 nM; in the experiment on NCI-H2228 it was 640 nM.

`CC(Oc1cc(-c2cc[nH]c(=O)c2)cnc1N)c1ccccc1` (stereo not given) displayed an IC50 in the experiment with KARPAS-299 [1] of 4400 nM.

For the compound `CC(Oc1cc(-c2ccn(C)c(=O)c2)cnc1N)c1ccccc1` (stereo not given), in the experiment with KARPAS-299 [1], the midpoint of inhibition, the IC50, lay at 2860 nM.

As for `C[C@@H](Sc1cc(-c2cc[nH]c(=O)c2)cnc1N)c1c(Cl)ccc(F)c1Cl`, in the experiment on KARPAS-299 [1], half-maximal inhibition (IC50) required 720 nM.

`CCn1ccc(-c2cnc(N)c(O[C@H](C)c3c(Cl)ccc(F)c3Cl)c2)cc1=O`: the IC50 is 60 nM with KARPAS-299 [1], 2510 nM in the experiment with SH-SY5Y, 1440 nM in the experiment “cells” and 1200 nM with NCI-H2228.

`CC(Oc1cc(-c2ccn(C)c(=O)c2)cnc1N)c1ccncc1` (stereo not given) yielded an IC50 in the experiment on KARPAS-299 [1] above 20000 nM.

As for `C[C@@H](Sc1cc(-c2ccn(CCN(C)C)c(=O)c2)cnc1N)c1c(Cl)ccc(F)c1Cl`, the 50% inhibitory concentration (IC50) with KARPAS-299 [1] worked out at 280 nM.

In the case of `CCCn1ccc(-c2cnc(N)c(O[C@H](C)c3c(Cl)ccc(F)c3Cl)c2)cc1=O`, the half-maximal inhibitory concentration (IC50) was determined as 110 nM with KARPAS-299 [1], 2150 nM with SH-SY5Y, 1430 nM in the experiment “cells” and 1220 nM in the experiment on NCI-H2228.

In turn, `CC(NC(=O)c1cc(-c2ccn(C)c(=O)c2)cnc1N)c1c(Cl)ccc(F)c1Cl` (stereo not given) came in with an IC50 in the experiment with KARPAS-299 [1] above 20000 nM.

In the experiment with KARPAS-299 [1], `Cc1ccc(C(C)Oc2cc(-c3ccn(C)c(=O)c3)cnc2N)cc1` (stereo not given) came in with an IC50 of 7780 nM.

`CC(NC(=O)c1cc(-c2cc[nH]c(=O)c2)cnc1N)c1c(Cl)ccc(F)c1Cl` (stereo not given): in the experiment with KARPAS-299 [1], the concentration for half-maximal inhibition (IC50) was above 20000 nM.

The compound `C[C@@H](Sc1cc(-c2ccn(C)c(=O)c2)cnc1N)c1c(Cl)ccc(F)c1Cl` displayed an IC50 in the experiment on KARPAS-299 [1] of 400 nM.

Take `C[C@@H](Oc1cc(-c2ccn(Cc3ccccc3)c(=O)c2)cnc1N)c1c(Cl)ccc(F)c1Cl`: the half-inhibitory concentration (IC50) came to 130 nM with KARPAS-299 [1], 1350 nM with SH-SY5Y, 1020 nM in the experiment “cells” and 1300 nM in the experiment on NCI-H2228.

`Cc1ccc(C(C)Oc2cc(-c3cc[nH]c(=O)c3)cnc2N)cc1` (stereo not given): the IC50 in the experiment on KARPAS-299 [1] came to 10200 nM.

Consider `CC(Oc1cc(-c2ccn(C)c(=O)c2)cnc1N)c1ccc(Cl)cc1` (stereo not given), for which the IC50 in the experiment on KARPAS-299 [1] was 20900 nM.

`C[C@@H](Oc1cc(-c2ccn(CCN(C)C)c(=O)c2)cnc1N)c1c(Cl)ccc(F)c1Cl`: the IC50 is 2.3 nM in experiment [2]; 40 nM in the experiment on KARPAS-299 [1]; 1670 nM in the experiment with SH-SY5Y; 710 nM in the experiment “cells”; 440 nM with NCI-H2228. The Activity was determined as 81.46% with KARPAS-299 [3], 8% in the experiment on KARPAS-299 [4] and 5.43% with KARPAS-299 [5].

Compound `CC(Oc1cc(-c2ccn(C)c(=O)c2)cnc1N)c1ccccn1` (stereo not given) gave a concentration for half-maximal inhibition (IC50) in the experiment on KARPAS-299 [1] of 11900 nM.

On to `CCOC(=O)Cn1ccc(-c2cnc(N)c(O[C@H](C)c3c(Cl)ccc(F)c3Cl)c2)cc1=O`, for which the IC50 stood at 210 nM in the experiment with KARPAS-299 [1], 1850 nM in the experiment on SH-SY5Y, 1230 nM in “cells” and 3320 nM in the experiment with NCI-H2228.

As for `CC(Oc1cc(-c2cc[nH]c(=O)c2)cnc1N)c1ccc(Cl)cc1` (stereo not given), the half-maximal inhibitory concentration (IC50) with KARPAS-299 [1] was found to be 17800 nM.

Consider `C[C@@H](Oc1cc(-c2ccn(C)c(=O)c2)cnc1N)c1c(Cl)ccc(F)c1Cl`, for which the IC50 in the experiment on KARPAS-299 [1] is 40 nM; in the experiment on SH-SY5Y, 1870 nM; in “cells” it was 830 nM; in the experiment with NCI-H2228, 690 nM.

Take `CC(Oc1cc(-c2ccn(C)c(=O)c2)cnc1N)c1cccnc1` (stereo not given): the IC50 in the experiment with KARPAS-299 [1] was 11200 nM.

Turning to `CC(Oc1cc(-c2ccn(Cc3ccccc3)c(=O)c2)cnc1N)c1c(Cl)ccc(F)c1Cl` (racemic), in the experiment on KARPAS-299 [1], the IC50 was 320 nM.

Turning to `CC(Oc1cc(-c2ccn(C)c(=O)c2)cnc1N)c1c(Cl)ccc(F)c1Cl` (racemic), the midpoint of inhibition in the experiment with KARPAS-299 [1], the IC50, lay at 200 nM.

With `CC(Oc1cc(-c2cc[nH]c(=O)c2)cnc1N)c1c(Cl)ccc(F)c1Cl` (racemic), in the experiment with KARPAS-299 [1], the half-maximal inhibitory concentration (IC50) amounted to 120 nM.

Values taken from ChEMBL document CHEMBL4406858, “Discovery of 2-aminopyridines bearing a pyridone moiety as potent ALK inhibitors to overcome the crizotinib-resistant mutants” (Eur J Med Chem, 2019).
